Data as given in patent publication US11318137B2, “Quinazoline compounds as modulators of Ras signaling” (VANDERBILT UNIVERSITY, priority 2017, dated 2022).

Key:
[1] = test system: H727 lung cancer cell lines, which contain a G12V K-Ras mutation; assay: Inhibition of cancer cell proliferation (CellTiter-Glo, 3 days); type: cell-based; conditions: Homo sapiens, NCI-H727, 72 h, H727 cells, 3 days at 37° C., normalized to DMSO control, read-out: Cell proliferation activity (H727 cancer cell line proliferation IC50)
Experimental: C. Inhibition of Cancer Cell Proliferation
Compounds of the present invention were measured for their ability to kill H727 lung cancer cell lines, which contain a G12V K-Ras mutation. Cell proliferation experiments were conducted in 96-well plates. Cells were plated at 1000 cells/well, incubated overnight, followed by treatment with a dose range of compound for 3 days at 37° C. Cell proliferation was assessed using a CellTiter-Glo assay (Promega) according to the manufacturer's protocol. Data were normalized to DMSO control. IC50 values were determined using a four-parameter dose-response (variable slope) equation. These assays are performed in a manner analogous to the assay disclosed in: Burns, M. C.; Sun, Q.; Daniels, R. N.; Camper, D. V.; Kennedy, J. P.; Phan, J.; Olejniczak, E. O.; Lee, T.; Waterson, A. G.; Rossanese, O. W.; Fesik, S. W. “Approach for targeting Ras with small molecules that activate SOS-mediated nucleotide exchange” Proc. Natl. Acad. Sci. 2014; 11(9): 3401-3406. PMCID: PMC3948241.

[2] = biological target: T1, SOS-mediated nucleotide exchange on Ras (Homo sapiens, UniProt Q07889); assay: SOS-mediated nucleotide exchange on Ras (BODIPY-GDP fluorescence); type: biochemical; conditions: Ras loaded with BODIPY-GDP, GTP and SOS added; EC50 from derived exchange rates
T1 sequence (Q07889 1-1333): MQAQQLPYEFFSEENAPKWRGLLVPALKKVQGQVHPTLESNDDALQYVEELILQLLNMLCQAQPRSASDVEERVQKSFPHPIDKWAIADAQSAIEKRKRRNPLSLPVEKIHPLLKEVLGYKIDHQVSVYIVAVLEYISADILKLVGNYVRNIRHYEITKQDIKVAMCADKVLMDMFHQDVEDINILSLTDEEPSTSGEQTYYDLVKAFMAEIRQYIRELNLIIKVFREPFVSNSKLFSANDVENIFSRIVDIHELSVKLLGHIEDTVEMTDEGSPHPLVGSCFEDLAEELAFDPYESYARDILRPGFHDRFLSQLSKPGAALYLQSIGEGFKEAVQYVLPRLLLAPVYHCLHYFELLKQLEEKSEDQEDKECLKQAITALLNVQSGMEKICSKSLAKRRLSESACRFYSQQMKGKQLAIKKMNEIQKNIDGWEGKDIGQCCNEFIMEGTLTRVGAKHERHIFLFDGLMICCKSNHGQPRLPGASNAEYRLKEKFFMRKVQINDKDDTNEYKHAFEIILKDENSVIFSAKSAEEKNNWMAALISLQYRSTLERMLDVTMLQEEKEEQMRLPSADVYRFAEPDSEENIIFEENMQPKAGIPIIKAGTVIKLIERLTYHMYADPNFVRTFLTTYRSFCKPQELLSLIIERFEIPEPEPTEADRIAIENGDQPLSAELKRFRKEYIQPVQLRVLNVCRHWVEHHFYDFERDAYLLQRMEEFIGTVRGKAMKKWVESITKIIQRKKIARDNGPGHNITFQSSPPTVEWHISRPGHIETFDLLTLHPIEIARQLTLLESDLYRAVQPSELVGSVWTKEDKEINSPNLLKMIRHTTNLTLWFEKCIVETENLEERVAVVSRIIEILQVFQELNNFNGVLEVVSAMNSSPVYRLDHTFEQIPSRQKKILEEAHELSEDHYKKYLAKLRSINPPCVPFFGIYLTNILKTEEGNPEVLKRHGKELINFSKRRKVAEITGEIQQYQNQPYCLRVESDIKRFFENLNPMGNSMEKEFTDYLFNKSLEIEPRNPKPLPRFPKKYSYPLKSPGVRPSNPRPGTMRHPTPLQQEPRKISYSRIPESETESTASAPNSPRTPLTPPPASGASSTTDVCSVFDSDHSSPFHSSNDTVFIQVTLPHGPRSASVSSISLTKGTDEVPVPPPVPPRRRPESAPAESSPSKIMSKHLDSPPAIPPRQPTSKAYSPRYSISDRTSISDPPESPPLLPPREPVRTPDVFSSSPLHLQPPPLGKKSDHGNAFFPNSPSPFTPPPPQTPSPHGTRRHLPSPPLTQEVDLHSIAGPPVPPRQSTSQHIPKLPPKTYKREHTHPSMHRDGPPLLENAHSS
How it was run: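 Compound, then GTP and SOS, were added to buffered Ras preloaded with BODIPY-GDP, and the fluorescence change from labeled GDP being exchanged for GTP was followed over time. Rates came from single-exponential fits, and EC50 from a four-parameter fit of mean rate against compound concentration.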

[3] = biological target: T2, Son of Sevenless (SOS) (Homo sapiens, UniProt Q07889); assay: Binding to SOS, fluorescence polarization anisotropy (FPA) displacement of FITC-conjugated probe; conditions: binding affinity calculated from IC50 of FITC-probe displacement, read-out: Binding affinities (binding affinity to SOS)
T2 sequence (Q07889 564-1049 limits assumed): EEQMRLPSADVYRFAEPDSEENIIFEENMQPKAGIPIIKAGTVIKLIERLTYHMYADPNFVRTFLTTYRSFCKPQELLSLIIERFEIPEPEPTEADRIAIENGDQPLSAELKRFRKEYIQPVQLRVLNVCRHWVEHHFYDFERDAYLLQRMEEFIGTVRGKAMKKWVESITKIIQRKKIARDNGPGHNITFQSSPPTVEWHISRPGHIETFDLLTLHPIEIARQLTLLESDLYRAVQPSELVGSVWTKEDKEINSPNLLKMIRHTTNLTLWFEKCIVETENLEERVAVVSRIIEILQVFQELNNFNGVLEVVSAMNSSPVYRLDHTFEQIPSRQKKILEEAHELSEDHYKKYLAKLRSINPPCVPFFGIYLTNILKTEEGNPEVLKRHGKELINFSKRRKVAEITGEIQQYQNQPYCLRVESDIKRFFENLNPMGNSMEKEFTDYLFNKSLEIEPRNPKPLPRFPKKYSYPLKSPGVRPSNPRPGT
How it was run: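 FITC-labelled probe incubated with SOS in buffer; displacement by test compound across a dose range read as fluorescence anisotropy change. IC50 from four-parameter variable-slope fit, binding affinity calculated from IC50.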

| Structure (SMILES) | EC50 [2] | Ki [3] | IC50 [1] |
| --- | --- | --- | --- |
| C[C@@H](Nc1nc(NCC2CCCCCC2)nc2ccccc12)C1CC1 [Example 5, (R)—N^2-(cycloheptylmethyl)-N^4-(1-cyclopropylethyl)quinazoline-2,4-diamine] | 5 to 30 µM | > 5 µM | 1000 to 5000 nM |
| CC[C@@H](Nc1nc(Nc2ccc(F)c(Cl)c2)nc2c(C3=CCNCC3)cccc12)c1cccs1 [Example 100, (R)—N^2-(3-chloro-4-fluorophenyl)-8-(1,2,3,6-tetrahydropyridin-4-yl)-N^4-(1-(thiophen-2-yl)propyl)quinazoline-2,4-diamine] | 5 to 30 µM | – | < 1000 nM |
| C[C@@H](Nc1nc(Cc2cc(F)cc(F)c2)nc2ccccc12)C1CC1 [Example 110, (R)—N-(1-cyclopropylethyl)-2-(3,5-difluorobenzyl)quinazolin-4-amine] | 5 to 30 µM | – | 5000 to 20000 nM |
| C[C@@H](Nc1nc(Nc2ccc(F)c(Cl)c2)nc2c(C3=CCN(C)CC3)cccc12)C1CC1 [Example 120, (R)—N^2-(3-chloro-4-fluorophenyl)-N^4-(1-cyclopropylethyl)-8-(1-methyl-1,2,3,6-tetrahydropyridin-4-yl)quinazoline-2,4-diamine] | 5 to 30 µM | 1 to 5 µM | – |
| C[C@@H](Nc1nc(Nc2ccc(F)c(Cl)c2)nc2c(C3=CCOCC3)cccc12)C1CC1 [Example 122, (R)—N^2-(3-chloro-4-fluorophenyl)-N^4-(1-cyclopropylethyl)-8-(3,6-dihydro-2H-pyran-4-yl)quinazoline-2,4-diamine] | > 30 µM | > 5 µM | – |
| CCOCCc1cccc2c(N[C@H](C)C3CC3)nc(Nc3ccc(F)c(Cl)c3)nc12 [Example 123, (R)—N^2-(3-chloro-4-fluorophenyl)-N^4-(1-cyclopropylethyl)-8-(2-ethoxyethyl)quinazoline-2,4-diamine] | > 30 µM | > 5 µM | – |
| C[C@@H](Nc1nc(Nc2ccc(F)c(Cl)c2)nc2c(N3CCOCC3)cccc12)C1CC1 [Example 124, (R)—N^2-(3-chloro-4-fluorophenyl)-N^4-(1-cyclopropylethyl)-8-morpholinoquinazoline-2,4-diamine] | 5 to 30 µM | > 5 µM | – |
| C[C@@H](Nc1nc(Nc2ccc(F)c(Cl)c2)nc2c(CN)cccc12)C(C)(C)C [Example 130, (R)-8-(aminomethyl)-N^2-(3-chloro-4-fluorophenyl)-N^4-(3,3-dimethylbutan-2-yl)quinazoline-2,4-diamine] | 5 to 30 µM | > 5 µM | – |
| Cc1cc(F)cc(Nc2nc(N[C@H](C)C(C)(C)C)c3cccc(CN)c3n2)c1 [Example 131, (R)-8-(aminomethyl)-N^4-(3,3-dimethylbutan-2-yl)-N^2-(3-fluoro-5-methylphenyl)quinazoline-2,4-diamine] | 5 to 30 µM | > 5 µM | – |
| C[C@@H](Nc1nc(Nc2ccc(F)c(Cl)c2)nc2c(CN)cccc12)c1cccs1 [Example 132, (R)-8-(aminomethyl)-N^2-(3-chloro-4-fluorophenyl)-N^4-(1-(thiophen-2-yl)ethyl)quinazoline-2,4-diamine] | 5 to 30 µM | 1 to 5 µM | – |
| C[C@@H](Nc1nc(NCc2cccc(Cl)c2F)nc2c(C3=CCNCC3)cccc12)c1cccs1 [Example 133, (R)—N^2-(3-chloro-2-fluorobenzyl)-8-(1,2,3,6-tetrahydropyridin-4-yl)-N^4-(1-(thiophen-2-yl)ethyl)quinazoline-2,4-diamine] | 5 to 30 µM | 1 to 5 µM | – |

Continued, in another order:

| EC50 [2] | Ki [3] | Structure (SMILES) | IC50 [1] |
| --- | --- | --- | --- |
| 5 to 30 µM | – | C[C@@H](Nc1nc(Nc2ccc(F)c(Cl)c2)nc2ccccc12)C1CC1 [Example 1, (R)—N^2-(3-chloro-4-fluorophenyl)-N^4-(1-cyclopropylethyl)quinazoline-2,4-diamine] | 1000 to 5000 nM |
| 1 to 5 µM | – | CC[C@@H](Nc1nc(Nc2ccc(F)c(Cl)c2)nc2c(CCN)cccc12)C1CC1 [Example 50, (R)-8-(2-aminoethyl)-N^2-(3-chloro-4-fluorophenyl)-N^4-(1-cyclopropylpropyl)quinazoline-2,4-diamine] | 1000 to 5000 nM |
| 1 to 5 µM | – | C[C@@H](Nc1nc(Nc2cc(F)cc(F)c2)nc2ccc(CCN)cc12)C1CC1 [Example 109, (R)-6-(2-aminoethyl)-N^4-(1-cyclopropylethyl)-N^2-(3,5-difluorophenyl)quinazoline-2,4-diamine] | < 1000 nM |
| 1 to 5 µM | 1 to 5 µM | C[C@@H](Nc1nc(NCC2CCCCC2)nc2c(C3=CCN(C)CC3)cccc12)C1CC1 [Example 121, (R)—N^2-(cyclohexylmethyl)-N^4-(1-cyclopropylethyl)-8-(1-methyl-1,2,3,6-tetrahydropyridin-4-yl)quinazoline-2,4-diamine] | – |
| < 1 µM | < 1 µM | CC[C@@H](Nc1nc(NCC2CCCCC2)nc2c(C3=CCNCC3)cccc12)C1CC1 [Example 125, (R)—N^2-(cyclohexylmethyl)-N^4-(1-cyclopropylpropyl)-8-(1,2,3,6-tetrahydropyridin-4-yl)quinazoline-2,4-diamine] | – |
| 1 to 5 µM | < 1 µM | CC[C@@H](Nc1nc(Nc2cc(C)cc(F)c2)nc2c(C3=CCNCC3)cccc12)C1CC1 [Example 126, (R)—N^4-(1-cyclopropylpropyl)-N^2-(3-fluoro-5-methylphenyl)-8-(1,2,3,6-tetrahydropyridin-4-yl)quinazoline-2,4-diamine] | – |
| 1 to 5 µM | < 1 µM | CC[C@@H](Nc1nc(NCC2CCCCC2)nc2c(CCN)cccc12)C1CC1 [Example 127, (R)-8-(2-aminoethyl)-N^2-(cyclohexylmethyl)-N^4-(1-cyclopropylpropyl)quinazoline-2,4-diamine] | – |
| 1 to 5 µM | 1 to 5 µM | CC[C@@H](Nc1nc(Nc2cc(C)cc(F)c2)nc2c(CCN)cccc12)C1CC1 [Example 128, (R)-8-(2-aminoethyl)-N^4-(1-cyclopropylpropyl)-N^2-(3-fluoro-5-methylphenyl)quinazoline-2,4-diamine] | – |
